Assay results published in patent publication US20080227809A1, “Arylalkylamine Vanadium (V) Salts for the Treatment and/or Prevention of Diabetes Mellitus” (GENMEDICA THERAPEUTICS SL, priority 2004, published 2008).

Assays:
[1] = in vivo
[2] = test system: adipocytes from treated diabetic rats; test: glucose transport in adipocytes isolated from chronically treated diabetic rats; type: in vivo, rat; settings: fourteen days of treatment
[3] = test system: streptozotocin-induced diabetic rats with undetectable circulating insulin
Method: Male Wistar rats weighting 180-220 g were purchased from Harlan (Interfauna Ibèrica S.A., Spain). Diabetes was induced by a single intraperitoneal injection of a freshly prepared solution of streptozotocin (in some studies the dose was 45 mg/kg body weight and in some others 100 mg/kg body weight dissolved in 50 mM citrate buffer, pH 4.5). Only diabetic animals with glycemia above 300 mg/dl were used. The animals were housed in animal quarters at 22° C. with a 12 h light/12 h dark cycle and were fed ad libitum. All procedures used were approved by the animal ethical committee of the University of Barcelona, Spain.
Osmotic minipumps delivering B6V10 (2.5 μmol/kg body wt/day) or decavanadate (2.5 μmol/kg body wt/day) were implanted subcutaneously in diabetic rats anaesthetised by ketamine hydrochloride (95 mg/kg) and xylasine (10 mg/kg). […] Glycemia was measured on arterio-venous blood collected from the tail vessels at 09:00 am for two weeks, before the administration of vanadate. Insulin concentrations were determined before and after treatment. In another set of experiments, B6V10 was orally administered at a single dose of 5 μmol/kg/day during the first week and 10 μmol/kg/day during 2 additional weeks by gastric gavage. A control group received the corresponding decavanadate salt in the absence of benzylamine. At the end of the treatment, animals were sacrificed and the liver, fat pad, heart and lung were kept at −80° C. and the plasma at −20° C. until their use for in vitro analysis.
In glucose tolerance tests and in chronic treatments, circulating glucose concentrations were determined by a rapid glucose analyser (Accutrend® Sensor Comfort, Roche, Basel. Switzerland). Plasma insulin (IRI) concentration was determined by ELISA method using a kit obtained from Crystal Chem. Inc. (Downers Grove, Ill.).
To this end, rats were made diabetic by the injection of a large dose of streptozotocin (100 mg/kg) that eliminates β-pancreatic insulin content.

[4] = test system: isolated mouse adipocytes; test: glucose transport (2-DG) in isolated mouse adipocytes; type: cell-based; settings: 100 μM
Method: Adipose cells from FVB mice were incubated for 45 minutes in basal conditions (Basal) or in the presence of 100 nM insulin (Ins), and different concentrations of hexaquis(benzylammonium) decavanadate (B6V10) in the absence or in the presence of 1 mM semicarbazide (SCZ) and thereafter, 2-DG transport was measured over 5 min.

**Q.** Which hypoglycemia [1] does the source give for “hexaquis(benzylammonium) decavanadate [Example B6V10]” here?
**A.** did not cause hypoglycemia

**Q.** What about the toxicological side effects [1] of the same substance?
**A.** did not show toxicological side effects

**Q.** What about the “glucose transport in adipocytes of treated rats under basal conditions” value [2] of the same substance?
**A.** increased glucose transport under basal conditions equivalent to that seen in the presence of insulin

**Q.** What about the plasma glucose ([3]; after 28 days, 2.5 μmol/kg) of the same substance?
**A.** reduced

**Q.** And the plasma insulin ([3]; after 28 days, 2.5 μmol/kg)?
**A.** without any observable change

**Q.** What about the “body weight or organ weights” value ([3]; rat, in vivo) of the same substance?
**A.** did not affect

**Q.** What about the “stimulation of glucose transport (increase)” value [4] of the same substance?
**A.** 93%
